The text below walks through data of ChEMBL document CHEMBL1132612, “Melatonergic properties of the (+)- and (-)-enantiomers of N-(4-methoxy-2,3-dihydro-1H-phenalen-2-yl)amide derivatives” (J Med Chem, 1999).

Experiment [1] deals with Melatonin receptor (Gallus gallus, UniProt P49288+P51050+P49285). Nature of the experiment: Inhibition of 2-[125I]- iodomelatonin from chicken brain melatonin receptors.
The target of experiment [2] is Melatonin receptor (Xenopus laevis). Description: Functional activity against melatonin receptor in lightening Xenopus laevis tadpole skin.
For experiment [3], the system named is Melatonin receptor (Xenopus laevis). Nature of the experiment: Percent maximum effect relative to melatonin (100%).
Experiment [4] deals with Melatonin receptor (Xenopus laevis). Description: The functional activity on melatonin receptor was evaluated by its potency to lighten the skin of Xenopus laevis tadpoles.

On to `CCC(=O)N[C@@H]1Cc2cccc3ccc(OC)c(c23)C1`, for which the inhibition constant (Ki) (commonly a dissociation constant, usually derived from enzyme kinetics or from competition with a known ligand) in experiment [1] is on record as 7.6 nM.
Consider `COc1ccc2cccc3c2c1C[C@H](NC(C)=O)C3`, for which the inhibitory constant (Ki) in experiment [1] was 28.7 nM. Also, the EC50 (usually the concentration at which the effect is half-maximal) in experiment [2] is greater than 1000 nM. Moreover, the Activity in experiment [3] came out at 0%.
With `O=C(NCCc1cccc2ccccc12)C1CCC1`, the Ki in experiment [1] amounted to 787 nM. In experiment [2], this molecule gave an EC50 greater than 1000 nM.
In experiment [4], `CCCC(=O)NC1Cc2cccc3ccc(OC)c(c23)C1` (racemic) came in with an EC50 greater than 1000 nM. In experiment [1], the Ki was determined as 1.7 nM. The same molecule yielded an Activity in experiment [3] of 40%.
Regarding `CCCC(=O)N[C@@H]1Cc2cccc3ccc(OC)c(c23)C1`, in experiment [1], the Ki came out at 10 nM.
Consider `COc1ccc2cccc3c2c1C[C@@H](NC(C)=O)C3`, for which the Ki in experiment [1] came out at 38.3 nM. In experiment [2], the EC50 is recorded as greater than 1000 nM. The Activity in experiment [3] amounted to 0%.
Molecule `CCC(=O)NC1Cc2cccc3ccc(OC)c(c23)C1` (racemic) displayed a Ki in experiment [1] of 8.6 nM. Also, in experiment [2], the 50% effective concentration (EC50) is given as greater than 1000 nM. Also, the Activity in experiment [3] came out at 40%.
In experiment [2], `COc1ccc2ccc(OC)c(CCNC(C)=O)c2c1` had a half-maximal effective concentration (EC50) of 0.037 nM. The molecule further registered an Activity in experiment [3] of 100%.
`CCCC(=O)N[C@H]1Cc2cccc3ccc(OC)c(c23)C1` gave a Ki in experiment [1] of 3.2 nM.
As to `COc1ccc2cccc3c2c1CC(NC(C)=O)C3` (racemic), in experiment [1], the Ki was determined as 36.5 nM. Also, the EC50 in experiment [2] was greater than 1000 nM. This molecule came in with an Activity in experiment [3] of 0%.
The molecule `CCC(=O)N[C@H]1Cc2cccc3ccc(OC)c(c23)C1` yielded an inhibition constant (Ki) in experiment [1] of 9 nM.
